Test results: article PMC11475482, “The 2‐oxoglutarate/malate carrier extends the family of mitochondrial carriers capable of fatty acid and 2,4‐dinitrophenol‐activated proton transport” (Acta Physiologica (Oxford, England), 2024)
Residue numbers refer to the chain shown, from its start.

Experiments:
Assay in all cases: planar lipid bilayer proton conductance
Assay type in all cases: biochemical
[1] = target: T1, mOGC (2‐oxoglutarate/malate carrier, SLC25A11) (Mus musculus, UniProt Q9CR62, R90S)
T1 construct: 34 kDa monomer, dimer (~69 kDa) on SDS-PAGE (dimer possibly artefact); tag not mentioned
T1 sequence (Q9CR62 2-314 R90S): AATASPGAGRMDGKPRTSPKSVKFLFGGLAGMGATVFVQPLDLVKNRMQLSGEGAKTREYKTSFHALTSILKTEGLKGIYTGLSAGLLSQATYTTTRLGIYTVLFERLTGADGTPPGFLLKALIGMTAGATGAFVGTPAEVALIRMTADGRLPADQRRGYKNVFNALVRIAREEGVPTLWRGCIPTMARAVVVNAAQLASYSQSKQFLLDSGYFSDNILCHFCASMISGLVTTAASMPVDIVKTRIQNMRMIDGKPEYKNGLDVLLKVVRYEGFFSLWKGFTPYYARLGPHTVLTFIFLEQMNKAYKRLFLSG

[2] = target: T2, mOGC (2‐oxoglutarate/malate carrier, SLC25A11) (Mus musculus, UniProt Q9CR62)
T2 construct: 34 kDa monomer, dimer (~69 kDa) on SDS-PAGE (dimer possibly artefact); tag not mentioned
T2 sequence (Q9CR62 2-314): T1 sequence (Q9CR62 2-314 R90S) with S89R

[3] = target: T2, mOGC (2‐oxoglutarate/malate carrier, SLC25A11); conditions: read-out: % inhibition at 4 mM
[4] = target: T2, mOGC (2‐oxoglutarate/malate carrier, SLC25A11); conditions: total membrane conductance with mOGC; activator (protonophore); pH 7.34, 32°C

| IC50 [2] [µM] | inhibition at 4000 µM [3] [%] | Gm at 15 mol% [4] [nS/cm^2] | Structure (SMILES) | inhibition at 2000 µM [1] [%] |
| --- | --- | --- | --- | --- |
| 60 ± 10 |  |  | O=C(O)CCC(=O)C(=O)O [2‐oxoglutarate] | 19 |
| 1000 ± 110 |  |  | O=C(O)CC(C(=O)O)c1ccccc1 (stereo not shown) [phenylsuccinate] |  |
|  | 75 |  | Nc1ncnc2c1ncn2[C@@H]1O[C@H](COP(=O)(O)OP(=O)(O)OP(=O)(O)O)[C@@H](O)[C@H]1O [ATP] |  |
|  |  | 92.5 ± 16.5 | CCCCC/C=C\C/C=C\C/C=C\C/C=C\CCCC(=O)O [arachidonic acid] |  |

| Structure (SMILES) | IC50 [2] [µM] | inhibition at 4000 µM [3] [%] | Gm at 15 mol% [4] [nS/cm^2] | inhibition at 2000 µM [1] [%] |
| --- | --- | --- | --- | --- |
| O=C(O)C[C@H](O)C(=O)O [malate] | 100 ± 60 |  |  | 74 |
